Experimental data: US20260174714A1, “NONHUMAN ANIMAL AND USE THEREOF” (THE JIKEI UNIVERSITY, priority 2022, published 2026)

Experiments:
[1] = tested on: regenerated nephrons; details: mouse, in vivo, ip
Description: (§1) This method has a low accuracy in the cell injection site and a low survival rate of the host fetus, and thus, a simpler method is required to establish the method as an evaluation model. Therefore, the collected cells derived from the EGFP mouse embryonic E14 kidney were directly injected into a subcapsular region of the kidney of a neonatal mouse aged 0 to 1 day after birth (see FIG. 3) by utilizing a fact that nephron precursor cells remain until about 3 days after birth and the renal development continues in mice (see Hartman H A, Lai H L. Cessation of renal morphogenesis in mice. 2007; 310(2): 379-87).
(§2) Cisplatin was intraperitoneally administered to a mouse individual having a chimeric kidney 2 weeks after transplantation, which was created in Experimental Example 1, and the regenerated nephrons were recovered 48 hours later and evaluated by immunofluorescence staining.
In addition, single-cell RNA sequencing was performed on the recovered sample.

[2] = tested on: foreign proximal renal tubular cells; details: in vivo, ip
Description: In Experimental Example 1, instead of the collected cells derived from the EGFP mouse embryonic E14 kidney, GFP-expressing human nephron precursor cells were directly injected into a subcapsular region of the kidney of a neonatal mouse aged 0 to 1 day after birth. The foreign nephrons in the cell injection region 2 weeks after the transplantation were examined by immunostaining (see (A) of FIG. 9). As shown in (A) of FIG. 9, the formation of glomeruli and renal tubules derived from GFP-expressing human nephron precursor cells was confirmed. In addition, cisplatin was intraperitoneally administered to a mouse individual having a chimeric kidney 2 weeks after the transplantation of the GFP-expressing human nephron precursor cells, and the regenerated nephrons were recovered 48 hours later and evaluated by immunofluorescence staining.

[3] = tested on: foreign proximal renal tubular cells; details: mouse, in vivo, ip
Description: as §1, §2

N.N.[Cl][Pt][Cl] [cisplatin]
expression of disorder-related genes other than Kim-1 [1]: enhanced expression of disorder-related genes other than Kim-1 was also confirmed | expression of human Kim-1 in the foreign proximal renal tubular cells [2]: expression of human Kim-1 was confirmed | expression of Kim-1 in the foreign proximal renal tubular cells [3]: dose-dependent expression of Kim-1 was confirmed
